For 16 compounds, IC50 and EC50 results are on record in US8053435B2, “Naphthalenyloxypropenyl derivatives having inhibitory activity against histone deacetylase and pharmaceutical composition comprising the same” (Korea Research Institute of Chemical Technology, priority 2006, dated 2011).

The subject of one assay is HDAC. Kind of assay: Inhibitory activity against HDAC (BIOMOL Quantizyme Assay system, Fluor de Lys substrate). It is filed as biochemical. The conditions noted are these: HeLa nuclear extract as source of HDAC enzymes, enzyme reaction 1 hr. Put shortly:
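HeLa nuclear extract served as HDAC source (100 nM final) with Fluor de Lys substrate, reacted 1 h. Development used Fluor de Lys developer containing 2 µM trichostatin A for 15 min at room temperature, read at ex 355/em 460 nm.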

Assay [1] has as its system colon cancer cells HCT116. Kind of assay: Inhibitory activity against proliferation of cancer cells, SRB (Sulforhodamine B) analysis. It counts as cell-based. Particulars: read-out: Inhibitory conc. against cancer cell growth (EC50 μM) HCT116. As to the method: Cancer cells were inoculated into a 96-well microplate at a concentration of 1×10^3˜3×10^3 cells/well and incubated under the condition of 37° C., 5% CO2 for 24 hrs. After the incubation was completed, 0.2, 1, 5, 25, or 100 μM of each of the compounds of Examples was added to the plate, and then the reactant was incubated for 48 hrs. After the substrate was stained with SRB, the anti-cancer activity was determined by comparing the amount of protein in the cells treated with the compound of Examples with that of protein in untreated cells.
Specifically, after the incubation was completed, the culture medium was removed from each well, and the cells were washed 3 times with PBS (pH 7.4). Then, a solution of 50% trichloroacetic acid (TCA) was added to each well in an amount of 50 μl/well at 4° C. for 1 hr to fix them. Then, the microplate was washed 5 times with distilled water and dried in air. […]
50 μl of a staining solution prepared by dissolving 0.4% SRB in 1% acetic acid was added to the wells, and the microplate was kept at room temperature for 1 hr. The well plate was then washed 5 times with 1% acetic acid to remove unbound SRB and dried in air. The stained cells were treated with 150 μl/well of 10 mM Tris-HCl solution (pH 10.5) to elute SRB from the cells, and the absorbance of the cells treated with the compounds of examples at 540 nm was measured, based on the absorbance of an untreated cell. The EC50 value representing inhibition of the cancer cell growth by the extent of 50% was calculated from the measured absorbance, and the results are shown in Table 6.

The mark [2] stands for this setting: Table 7, formula (4) series, read-out: HDAC Inhibitory conc. (IC50, μM/ml).
Where [3] appears, read: Homo sapiens, HCT-116, Table 8, 48 hrs incubation with compound.

Read-outs that look alike come from different tables or passages of the source.

As a reminder, the EC50 is the concentration needed to bring the measured effect to its halfway point. With `CCN1CCC(NC/C(=C/c2ccc(C(=O)NO)cc2)COc2cccc3ccccc23)CC1` [Example 4-1, (Z)-4-(3-(1-ethylpiperidin-4-ylamino)-2-((naphthalen-1-yloxy)methyl)prop-1-enyl)-N-hydroxybenzamide], the IC50 in the assay on HDAC (setting [2]) stood at 0.014 µM. Moreover, in assay [1] (setting [3]), the EC50 was found to be 1.1 µM.
As to `CCN1CCC(NC/C(=C/c2ccc(C(=O)NO)cc2)COc2cccc3ccccc23)C1` (centres unmarked) [Example 4-2, (Z)-4-(3-(1-ethylpyrrolidin-3-ylamino)-2-((naphthalen-1-yloxy)methyl)prop-1-enyl)-N-hydroxybenzamide], the IC50 in the assay with HDAC (setting [2]) was determined as 0.017 µM. The concentration for a half-maximal effect (EC50) in assay [1] (setting [3]) is 0.8 µM.
On the same counts, the results for `O=C(NO)c1ccc(/C=C(/CNC2CCN(C3CCCC3)CC2)COc2cccc3ccccc23)cc1` [Example 4-7, (Z)-4-(3-(1-cyclopentylpiperidin-4-ylamino)-2-((naphthalen-1-yloxy)methyl)prop-1-enyl)-N-hydroxybenzamide] are 0.016 µM and 10 µM.
Taken in the same sequence, the figures for `O=C(NO)c1ccc(/C=C(/CNC2CCN(C3CC3)CC2)COc2cccc3ccccc23)cc1` [Example 4-10, (Z)-4-(3-(1-cyclopropylpiperidin-4-ylamino)-2-((naphthalen-1-yloxy)methyl)prop-1-enyl)-N-hydroxybenzamide] were 0.011 µM and 0.5 µM.
On to `O=C(NO)c1ccc(/C=C(/CNC2CCN(C3CC3)C2)COc2cccc3ccccc23)cc1` (centres unmarked) [Example 4-11, (Z)-4-(3-(1-cyclopropylpyrrolidin-3-ylamino)-2-((naphthalen-1-yloxy)methyl)prop-1-enyl)-N-hydroxybenzamide], for which, in the assay on HDAC (setting [2]), the IC50 was 0.023 µM. The EC50 in assay [1] (setting [3]) stood at 1 µM.
Turning to `COCC(C)NC/C(=C/c1ccc(C(=O)NO)cc1)COc1cccc2ccccc12` (centres unmarked) [Example 4-13, (Z)—N-hydroxy-4-(3-(1-methoxypropan-2-ylamino)-2-((naphthalen-1-yloxy)methyl)prop-1-enyl)benzamide], the IC50 in the assay with HDAC (setting [2]) came out at 0.005 µM. Moreover, the EC50 in assay [1] (setting [3]) is less than 0.2 µM.
For `CC(C)N1CCC(NC/C(=C/c2ccc(C(=O)NO)cc2)COc2cccc3ccccc23)CC1` [Example 4-15, (Z)—N-hydroxy-4-(3-(1-isopropylpiperidin-4-ylamino)-2-((naphthalen-1-yloxy)methyl)prop-1-enyl)benzamide], the IC50 with HDAC (setting [2]) worked out at 0.014 µM. The EC50 in assay [1] (setting [3]) is 0.4 µM.
On to `O=C(NO)c1ccc(/C=C(/CNCCCn2ccnc2)COc2cccc3ccccc23)cc1` [Example 4-16, (Z)-4-(3-(3-(1H-imidazol-1-yl)propylamino)-2-((naphthalen-1-yloxy)methyl)prop-1-enyl)-N-hydroxybenzamide], for which the IC50 in the assay with HDAC (setting [2]) came out at 0.003 µM. Moreover, the EC50 in assay [1] (setting [3]) worked out at 0.7 µM.
Taken in the same sequence, the figures for `O=C(NO)c1ccc(/C=C(/CNCCc2ccc(O)cc2)COc2cccc3ccccc23)cc1` [Example 4-17, (Z)—N-hydroxy-4-(3-(4-hydroxyphenethylamino)-2-((naphthalen-1-yloxy)methyl)prop-1-enyl)-benzamide] were 0.003 µM and less than 0.2 µM.
Taken in the same sequence, the figures for `CN(C)CC(C)(C)CNC/C(=C/c1ccc(C(=O)NO)cc1)COc1cccc2ccccc12` [Example 4-18, (Z)-4-(3-(3-(dimethylamino)-2,2-dimethylpropylamino)-2-((naphthalen-1-yloxy)methyl)prop-1-enyl)-N-hydroxybenzamide] were 0.006 µM and 0.31 µM.
With `CC(C)N(CCNC/C(=C/c1ccc(C(=O)NO)cc1)COc1cccc2ccccc12)C(C)C` [Example 4-19, (Z)-4-(3-(2-(diisopropylamino)ethylamino)-2-((naphthalen-1-yloxy)methyl)prop-1-enyl)-N-hydroxybenzamide], the IC50 with HDAC (setting [2]) worked out at 0.016 µM. Besides, the EC50 in assay [1] (setting [3]) is 0.8 µM.
`COCCNC/C(=C/c1ccc(C(=O)NO)cc1)COc1cccc2ccccc12` [Example 4-20, (Z)—N-hydroxy-4-(3-(2-methoxyethylamino)-2-((naphthalen-1-yloxy)methyl)prop-1-enyl)-benzamide]: the IC50 in the assay with HDAC (setting [2]) is 0.01 µM. Moreover, the half-maximal effective concentration (EC50) in assay [1] (setting [3]) is less than 0.2 µM.
On the same counts, the results for `O=C(NO)c1ccc(/C=C(/CNCc2cccs2)COc2cccc3ccccc23)cc1` [Example 4-22, (Z)—N-hydroxy-4-(3-(naphthalen-1-yloxy)-2-((thiophen-2-ylmethylamino)methyl)prop-1-enyl)benzamide] are 0.02 µM and 1.3 µM.
On the same counts, the results for `COc1ccc(CCNC/C(=C/c2ccc(C(=O)NO)cc2)COc2cccc3ccccc23)cc1` [Example 4-23, (Z)—N-hydroxy-4-(3-(4-methoxyphenethylamino)-2-((naphthalen-1-yloxy)methyl)prop-1-enyl)-benzamide] are 0.04 µM and 0.8 µM.
Regarding `CN(C)c1ccc(CNC/C(=C/c2ccc(C(=O)NO)cc2)COc2cccc3ccccc23)cc1` [Example 4-24], the IC50 in the assay on HDAC (setting [2]) was found to be 0.011 µM. In addition, in assay [1] (setting [3]), the EC50 turned out to be 0.5 µM.
As for “(Z)-8-(4-Fluorophenethylamino)-N-hydroxy-7-((naphthalen-1-yloxy)methyl)oct-enamide [Example 3-9]”, the IC50 in the assay on HDAC (Table 5, formula (3) series, read-out: Inhibitory conc. (IC50, μM/ml)) turned out to be 0.003 µM. Also, the 50% effective concentration (EC50) in assay [1] (Table 6, 48 hrs incubation with compound) came to 0.4 µM.
